Measurements from PubChem BioAssay AID1845207 (Molecular Pharmacology Branch, DTP, NCI, 2023).

Test system: NCI-H1876 tumor spheroid viability
Assay: Anticancer human tumor NCI-H1876 cell line growth inhibition;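 further: spheroids exposed to compounds for seven days before the viability read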;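 on viability, T/C: percent of DMSO vehicle control viability so 100% = vehicle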
Settings: spheroids with HUVEC and MSC; for IC50: curve of first compound; for viability, T/C: stronger effect = lower value
How it was run: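 Single agents and combinations were tested on spheroids built from tumor cells plus HUVEC and hMSC, at half-log dilutions starting at or near clinical Cmax, else 10 microM; final DMSO 0.25% (v/v).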

## COc1cc(C)[nH]c(=O)c1CN1CCc2c(Cl)cc(C(OC)C3COC3)c(Cl)c2C1=O (stereo not given) + Cn1nnc2c(C(N)=O)ncn2c1=O
Second compound 1 µM
  IC50: > 10 µM
Second compound 3.16 µM
  IC50: > 10 µM
Second compound 10 µM
  IC50: > 10 µM
Second compound 31.6 µM
  IC50: > 10 µM
Second compound 100 µM
  IC50: > 10 µM
Second compound 1 µM, first compound 0.0316 µM
  viability, T/C: 112%
Second compound 1 µM, first compound 0.1 µM
  viability, T/C: 108%
Second compound 1 µM, first compound 0.316 µM
  viability, T/C: 109%
Second compound 1 µM, first compound 1 µM
  viability, T/C: 90.8%
Second compound 1 µM, first compound 3.16 µM
  viability, T/C: 92.7%
Second compound 1 µM, first compound 10 µM
  viability, T/C: 70.4%
Second compound 3.16 µM, first compound 0.0316 µM
  viability, T/C: 117%
Second compound 3.16 µM, first compound 0.1 µM
  viability, T/C: 117%
Second compound 3.16 µM, first compound 0.316 µM
  viability, T/C: 110%
Second compound 3.16 µM, first compound 1 µM
  viability, T/C: 102%
Second compound 3.16 µM, first compound 3.16 µM
  viability, T/C: 89.9%
Second compound 3.16 µM, first compound 10 µM
  viability, T/C: 75.4%
Second compound 10 µM, first compound 0.0316 µM
  viability, T/C: 108%
Second compound 10 µM, first compound 0.1 µM
  viability, T/C: 109%
Second compound 10 µM, first compound 0.316 µM
  viability, T/C: 107%
Second compound 10 µM, first compound 1 µM
  viability, T/C: 100%
Second compound 10 µM, first compound 3.16 µM
  viability, T/C: 95%
Second compound 10 µM, first compound 10 µM
  viability, T/C: 79.1%
Second compound 31.6 µM, first compound 0.0316 µM
  viability, T/C: 108%
Second compound 31.6 µM, first compound 0.1 µM
  viability, T/C: 107%
Second compound 31.6 µM, first compound 0.316 µM
  viability, T/C: 107%
Second compound 31.6 µM, first compound 1 µM
  viability, T/C: 102%
Second compound 31.6 µM, first compound 3.16 µM
  viability, T/C: 86.5%
Second compound 31.6 µM, first compound 10 µM
  viability, T/C: 71.3%
Second compound 100 µM, first compound 0.0316 µM
  viability, T/C: 92.2%
Second compound 100 µM, first compound 0.1 µM
  viability, T/C: 91.4%
Second compound 100 µM, first compound 0.316 µM
  viability, T/C: 81.2%
Second compound 100 µM, first compound 1 µM
  viability, T/C: 81.4%
Second compound 100 µM, first compound 3.16 µM
  viability, T/C: 81.7%
Second compound 100 µM, first compound 10 µM
  viability, T/C: 72.3%

## CC1COCCN1c1cc(-c2ccnn2C)c2ccnc(-c3ccn[nH]3)c2n1 (stereo not given) + CC[C@@]1(O)C(=O)OCc2c1cc1n(c2=O)Cc2cc3c(CN(C)C)c(O)ccc3nc2-1
Second compound 0.003 µM
  IC50: < 0.0316 µM
Second compound 0.00949 µM
  IC50: < 0.0316 µM
Second compound 0.03 µM
  IC50: < 0.0316 µM
Second compound 0.0949 µM
  IC50: < 0.0316 µM
Second compound 0.3 µM
  IC50: < 0.0316 µM
Second compound 0.003 µM, first compound 0.0316 µM
  viability, T/C: 16.2%
Second compound 0.003 µM, first compound 0.1 µM
  viability, T/C: 9.61%
Second compound 0.003 µM, first compound 0.316 µM
  viability, T/C: 6.33%
Second compound 0.003 µM, first compound 1 µM
  viability, T/C: 5.32%
Second compound 0.003 µM, first compound 3.16 µM
  viability, T/C: 2.8%
Second compound 0.003 µM, first compound 10 µM
  viability, T/C: 3.12%
Second compound 0.00949 µM, first compound 0.0316 µM
  viability, T/C: 6.81%
Second compound 0.00949 µM, first compound 0.1 µM
  viability, T/C: 5.86%
Second compound 0.00949 µM, first compound 0.316 µM
  viability, T/C: 5.29%
Second compound 0.00949 µM, first compound 1 µM
  viability, T/C: 3.16%
Second compound 0.00949 µM, first compound 3.16 µM
  viability, T/C: 2.62%
Second compound 0.00949 µM, first compound 10 µM
  viability, T/C: 4.77%
Second compound 0.03 µM, first compound 0.0316 µM
  viability, T/C: 3.3%
Second compound 0.03 µM, first compound 0.1 µM
  viability, T/C: 3.5%
Second compound 0.03 µM, first compound 0.316 µM
  viability, T/C: 3.31%
Second compound 0.03 µM, first compound 1 µM
  viability, T/C: 2.97%
Second compound 0.03 µM, first compound 3.16 µM
  viability, T/C: 2.42%
Second compound 0.03 µM, first compound 10 µM
  viability, T/C: 2.82%
Second compound 0.0949 µM, first compound 0.0316 µM
  viability, T/C: 2.58%
Second compound 0.0949 µM, first compound 0.1 µM
  viability, T/C: 2.23%
Second compound 0.0949 µM, first compound 0.316 µM
  viability, T/C: 2.26%
Second compound 0.0949 µM, first compound 1 µM
  viability, T/C: 2.14%
Second compound 0.0949 µM, first compound 3.16 µM
  viability, T/C: 2.41%
Second compound 0.0949 µM, first compound 10 µM
  viability, T/C: 2.01%
Second compound 0.3 µM, first compound 0.0316 µM
  viability, T/C: 2.18%
Second compound 0.3 µM, first compound 0.1 µM
  viability, T/C: 2.1%
Second compound 0.3 µM, first compound 0.316 µM
  viability, T/C: 2.02%
Second compound 0.3 µM, first compound 1 µM
  viability, T/C: 2.7%
Second compound 0.3 µM, first compound 3.16 µM
  viability, T/C: 1.91%
Second compound 0.3 µM, first compound 10 µM
  viability, T/C: 1.92%
